Measurements published in US7399869B2, “Fibroblast activation protein inhibitor compounds and methods” (Genentech, Inc., priority 2005, dated 2008).
Non-standard residues stand in square brackets, D forms with d. Residues, ends and D or L forms follow the SMILES beside them. ξ: configuration not given here. *: point of attachment. AFC = O=c1cc(C(F)(F)F)c2ccc(N*)cc2o1; AMC = Cc1cc(=O)oc2cc(N*)ccc12; Cbz = O=C(OCc1ccccc1)*; ξP = O=C(O)C1CCCN1

What was measured:
Type in all cases: biochemical
DPP-4 [1] = molecular target: T1, DPP-4 (Homo sapiens, UniProt P27487); assay: Relative cleavage rates of coumarin (AMCC) dipeptide substrates by DPP-4; set-up: DPP-4 (amino acids 39-766); FLAG (N); made in house; host or cells: 293 cells (secreted, purified from serum-free conditioned media); conditions: for cleavage of N-substituted-Gly-Pro-AMCC substrates by DPP-4 (in words) / relative cleavage rate by DPP-4: DPP-4 6.8 nM; for cleavage of N-substituted-Gly-Pro-AMCC substrates by DPP-4 (in words): substrate concentrations up to 1 mM; for relative cleavage rate by DPP-4: N-blocked Gly-Pro-AMCC substrates 6, normalized to N-unblocked Gly-Pro-AMCC
Procedure: (§1) The relative cleavage rates of a variety of N-blocked, C-terminal coumarin (AMCC) Gly-Pro dipeptide substrates 6 were measured. The rates were normalized to N-unblocked Gly-Pro-AMCC for FAP and DPP-4.
(§2) To examine whether FAP could cleave other N-substituted-Gly-Pro-based substrates, N-methyl-, formyl-, succinyl-, benzyloxycarbonyl-(Z-) and biotinyl-Gly-Pro-AMCC substrates 6 were synthesized and reacted with FAP (37 nM) and DPP-4 (6.8 nM).
(§3) Amino-terminus P2 was varied with the L-amino acids: alanine, aspartic acid, glutamic acid, phenylalanine, glycine, histidine, isoleucine, lysine, leucine, methionine, asparagine, proline, glutamine, arginine, serine, threonine, valine, tryptophan, and tyrosine (from left). AMCC=2-(7-amino-4-methyl-2-oxo-2H-chromen-3-yl)acetamide. For both enzymes, the amino acid adjacent in the model dipeptide substrate had little effect where the amino-terminus was unblocked. Hydrolysis rates of other P2-Pro-AMCC substrates by FAP and DPP-4 relative to Gly-Pro-AMCC include the following in Table 6:
(§4) Protease Assays—Protease activity was monitored continuously using a SpectraMax M2 microplate reader (Molecular Devices Corp., Sunnyvale Calif.) in the kinetic mode. Assays were conducted at 23° C. in 50 mM Tris (pH 7.4), 100 mM NaCl, 1 mM EDTA. The excitation/emission wavelengths for the different fluorogenic substrates were 360/460 nm (AMC), 400/505 nm (AFC), 340/425 nm (MNA), 340/510 nm (EDANS), and 337/425 nm (Abs). Standard curves of the appropriate fluorescent product versus concentration were used to convert relative fluorescence units to nmol of product produced. Substrates in the X-Pro-AMC library were used in rate assays at 5 μM final concentration. […] The kinetic parameters were calculated from Michaelis-Menten plots (V0 versus [S]) with nonlinear regression analysis using GraphPad software. kcat values were calculated under the assumption that each protease was 100% active.

FAP [2] = molecular target: T2, FAP (Homo sapiens, UniProt Q12884); assay: Relative cleavage rates of coumarin (AMCC) dipeptide substrates by FAP; set-up: FAP (amino acids 38-760); FLAG (N); made in house; host or cells: 293 cells (secreted, purified from serum-free conditioned media); conditions: for relative cleavage rate by FAP: N-blocked Gly-Pro-AMCC substrates 6, normalized to N-unblocked Gly-Pro-AMCC, FAP 37 nM
T2 sequence (Q12884 38-760): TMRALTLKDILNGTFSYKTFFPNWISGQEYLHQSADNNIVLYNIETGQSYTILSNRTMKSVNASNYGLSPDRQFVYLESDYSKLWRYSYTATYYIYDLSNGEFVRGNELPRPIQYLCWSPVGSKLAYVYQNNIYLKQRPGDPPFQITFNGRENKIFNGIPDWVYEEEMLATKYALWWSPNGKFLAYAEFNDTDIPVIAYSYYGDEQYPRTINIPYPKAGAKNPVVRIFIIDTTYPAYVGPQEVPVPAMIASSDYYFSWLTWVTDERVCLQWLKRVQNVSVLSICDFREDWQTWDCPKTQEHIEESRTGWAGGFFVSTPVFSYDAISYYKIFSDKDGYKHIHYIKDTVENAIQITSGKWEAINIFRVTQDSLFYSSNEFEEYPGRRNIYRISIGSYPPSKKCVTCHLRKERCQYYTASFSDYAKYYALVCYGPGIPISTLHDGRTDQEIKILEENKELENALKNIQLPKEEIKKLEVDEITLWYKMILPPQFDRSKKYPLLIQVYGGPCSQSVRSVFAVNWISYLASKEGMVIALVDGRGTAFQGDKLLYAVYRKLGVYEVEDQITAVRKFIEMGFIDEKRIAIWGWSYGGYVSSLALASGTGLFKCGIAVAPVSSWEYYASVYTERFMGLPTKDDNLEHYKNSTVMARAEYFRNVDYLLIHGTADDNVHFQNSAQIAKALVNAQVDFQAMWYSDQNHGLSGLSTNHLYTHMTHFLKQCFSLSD
Procedure: as §1, §2, §3, §4

FAP [3] = molecular target: T2, FAP; assay: Hydrolysis of C-terminal coumarin dipeptide substrates by FAP (kinetic constants); set-up: FAP (amino acids 38-760); FLAG (N); made in house; host or cells: 293 cells (secreted, purified from serum-free conditioned media); conditions: for Km / Kcat: pH 7.4, NC = no cleavage up to 1 mM substrate
Procedure: (§5) The relative cleavage rates by FAP and several dipeptidases of N-blocked (8) and unblocked (7) Gly-Pro dipeptide substrates were measured.
(§6) The cleavage (hydrolysis) rates of various C-terminal coumarin dipeptide substrates 7-16 by FAP and DPP-4 were measured (Tables 4 and 5). The amino-terminus of the substrates was unblocked and the amino acids were varied in Table 4. The amino-terminus of the substrates was blocked and the amino acids were varied in Table 5. To extend the results obtained with the dipeptide substrate library, kinetic parameters were determined for cleavage of the unblocked dipeptide substrates by FAP (Table 4). The catalytic efficiency (kcat/Km) for substrate cleavage was greatest with Ile-Pro-AFC, followed by Ala-Pro-, Gly-Pro- and Phe-Pro-AFC, consistent with the dipeptide substrate library results (FIG. 5). […] Kinetic constants for cleavage of Ala-Pro-AFC and Gly-Pro-AFC by DPP-4 were determined (Table 4). The catalytic efficiency for Ala-Pro-AFC hydrolysis was greater than that for Gly-Pro-AFC, and consistent with the dipeptide library.
as §4
(§7) When saturating amounts of substrate could not be achieved, catalytic efficiencies (kcat/Km) were determined under pseudo-first order conditions ([S]<<the estimated Km) and fit to the following equation: Ln[St/S0]=−kobst, where St is the concentration of substrate remaining at time t, S0 is the initial substrate concentration and kobs is the apparent first order substrate cleavage constant equal to (kcat/Km) times ET, the total enzyme concentration (Copeland, R. (2000) Enzymes, A Practical Introduction to Structure, Mechanism, and Data Analysis, 2nd Ed., John Wiley and Sons, Inc, New York). The linear relationship of Ln[St/S0] versus time allows calculation of kcat/Km by dividing the slope of the plot by ET.

DPP-4 [4] = molecular target: T1, DPP-4; assay: Hydrolysis of C-terminal coumarin dipeptide substrates by DPP-4 (kinetic constants); set-up: DPP-4 (amino acids 39-766); FLAG (N); made in house; host or cells: 293 cells (secreted, purified from serum-free conditioned media)
Procedure: as §5, §6, §4, §7

DPP-4 [5] = molecular target: T1, DPP-4; assay: Inhibition of DPP-4 by N-blocked boroPro compounds (progress curves); set-up: DPP-4 (amino acids 39-766); FLAG (N); made in house; host or cells: 293 cells (secreted, purified from serum-free conditioned media); conditions: cleavage of substrate L-Ala-Pro-AFC
Procedure: The steady states of product formation in the absence (V0) and presence of inhibitor (Vi) were used to calculate apparent inhibition constants (Kiapp) by plotting V0/Vi−1 against inhibitor concentration.
Briefly, proteases were added to a reaction mixture containing inhibitor and substrate (Ac-Ala-AMC for APH, Z-Gly-Pro-AMC for POP, and Ala-Pro-AFC for all others) in assay buffer at 23° C. Protease activity was followed continuously as described above to monitor time-dependent inhibition. Data were plotted as V0/Vi−1 versus [I], where V0 is the rate if substrate hydrolysis in the absence of inhibitor, Vi is the steady state rate of substrate hydrolysis in the presence of inhibitor and [I] is the concentration of Ac-Gly-BoroPro.
KI values for inhibition of proteases by 5 were determined using the method of progress curves. Briefly, proteases (10-100 nM) were added to a reaction mixture containing inhibitor 5 (0-10 μM) and substrate AP-AFC in assay buffer at 23° C. […] Data were plotted as V0/Vi−1 versus [I], where V0 is the rate if substrate hydrolysis in the absence of inhibitor, Vi is the steady state rate of substrate hydrolysis in the presence of inhibitor and [I] is the concentration of 5. […] Ki, the true equilibrium inhibition constant was determined according to the following relationship: Ki=Kobs/(1+[S]/Km), where [S] is the concentration of substrate used in the assay and Km is the Michaelis constant for substrate cleavage.

[6] = FAP, substrates with unblocked N-termini, 23° C. in 50 mM Tris-HCl, 100 mM NaCl, 1 mM EDTA
[7] = FAP, substrates with unblocked N-termini, 23° C.
[8] = DPP-4, substrates with unblocked N-termini, 23° C., pH 7.4
[9] = P2-Pro-AMCC substrates, hydrolysis rates normalized to Gly-Pro-AMCC
[10] = FAP, substrates with blocked N-termini, 23° C.

T1 sequence (P27487 39-766): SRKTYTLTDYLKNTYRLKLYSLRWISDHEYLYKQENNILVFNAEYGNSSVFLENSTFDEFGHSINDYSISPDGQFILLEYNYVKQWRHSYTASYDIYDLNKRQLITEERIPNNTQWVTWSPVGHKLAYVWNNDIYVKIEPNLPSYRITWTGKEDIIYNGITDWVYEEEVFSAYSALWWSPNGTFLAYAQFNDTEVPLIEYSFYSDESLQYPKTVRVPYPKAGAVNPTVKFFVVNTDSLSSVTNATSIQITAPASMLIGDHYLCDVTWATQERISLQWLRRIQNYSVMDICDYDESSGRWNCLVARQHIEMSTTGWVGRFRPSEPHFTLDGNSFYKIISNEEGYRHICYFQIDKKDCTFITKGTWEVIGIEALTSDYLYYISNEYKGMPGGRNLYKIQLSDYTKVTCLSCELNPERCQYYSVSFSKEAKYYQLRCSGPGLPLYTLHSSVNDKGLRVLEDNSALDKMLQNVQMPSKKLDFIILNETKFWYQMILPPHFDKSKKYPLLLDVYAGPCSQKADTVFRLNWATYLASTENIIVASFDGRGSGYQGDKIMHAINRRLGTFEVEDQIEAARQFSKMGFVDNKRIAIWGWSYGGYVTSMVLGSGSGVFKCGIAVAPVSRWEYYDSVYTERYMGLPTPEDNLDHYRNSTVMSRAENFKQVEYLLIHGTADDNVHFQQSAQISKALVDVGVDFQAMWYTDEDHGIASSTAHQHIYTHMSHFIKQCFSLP

Row | Compound | cleavage of N-substituted-Gly-Pro-AMCC substrates by DPP-4 (in words) (DPP-4 [1]) | relative cleavage rate by FAP (FAP [2]) [%] | relative cleavage rate by DPP-4 (DPP-4 [1]) [%] | Km (FAP [3]; [6]) [µM] | Kcat (FAP [3]; [7]) [s⁻¹] | further results
1 | N-methyl-Gly-Pro-AMCC | comparable to Gly-Pro-AMCC |  |  |  |  | 
2 | O=C(O)c1ccc2c(c1)C(=O)OC21c2ccc(O)cc2Oc2cc(O)ccc21 [5-carboxyfluorescein] |  | 36 | 0 |  |  | 
3 | NC(Cc1ccccc1)C(=O)N1CCCC1C(=O)Nc1ccc2c(C(F)(F)F)cc(=O)oc2c1 (stereo not drawn) [Phe-Pro-AFC 10, Phe-Pro-AFC] (H-Phe-Pro-{AFC}; configuration not given here) |  |  |  | 245 ± 22 | 1.1 ± 0.1 | 
4 | succinyl-Gly-Pro-AMCC [HO2CCH2CH2C(═O)] | no cleavage | 0 | 0 |  |  | 
5 | Cc1cc(=O)oc2cc(NC(=O)[C@H](C)NC(=O)CN)ccc12 [Gly-Ala-AMC 11, Gly-Ala-AMC] (H-Gly-Ala-{AMC}) |  |  |  |  |  | cleavage by FAP (in words) (FAP [3]): not cleaved
6 | CC[C@H](C)[C@H](N)C(=O)N1CCC[C@H]1C(=O)Nc1ccc2c(C(F)(F)F)cc(=O)oc2c1 [Ile-Pro-AFC 13, Ile-Pro-AFC] (H-Ile-Pro-{AFC}) |  |  |  | 106 ± 6 | 6.9 ± 0.3 | Km, fold lower than the other P2-Pro-AFC substrates (FAP [3]; FAP): ~2.5 fold
7 | Cc1cc(=O)oc2cc(NC(=O)C(C)NC(=O)C(N)CCCCN)ccc12 (stereo not drawn) [Lys-Ala-AMC 12, Lys-Ala-AMC] (H-Lys-Ala-{AMC}; configuration not given here) |  |  |  | 189 ± 20 | 0.01 ± 0.001 | catalytic efficiency, fold less than for cleavage of P2-Pro-based peptides (FAP [3]; FAP): 400-1000 fold
8 | formyl-Gly-Pro-AMCC [HC(═O)] | low rate of hydrolysis | 130 | 7 |  |  | 
9 | biotinyl-Gly-Pro-AMCC | no cleavage | 40 | 0 |  |  | 
10 | C[C@H](N)C(=O)N1CCC[C@H]1C(=O)Nc1ccc2c(C(F)(F)F)cc(=O)oc2c1 [Ala-Pro-AFC 9, Ala-Pro-7-amino-4-trifluoromethylcoumarin] (H-Ala-Pro-{AFC}) |  |  |  | 244 ± 28 | 14.2 ± 0.9 | Kcat (DPP-4 [4]; [8]): 45.6 ± 1.7 s⁻¹; Km (DPP-4 [4]; [8]): 16 ± 3 µM
11 | Cc1c(CC(N)=O)c(=O)oc2cc(NC(=O)[C@@H]3CCCN3C(=O)[C@@H](C)N)ccc12 [D-Ala] |  |  |  |  |  | Relative Hydrolysis rate by FAP (FAP [2]; [9]): 0; Relative Hydrolysis rate by DPP-4 (DPP-4 [1]; [9]): 2
12 | Cc1cc(=O)oc2cc(NC(=O)C3CCCN3C(=O)CNC(=O)OCc3ccccc3)ccc12 (stereo not drawn) [Z-Gly-Pro-AMC 14, Benzyloxycarbonyl (Z)-Gly-Pro-7-amino-4-methylcoumarin] (Cbz-Gly-[ξP]-{AMC}) |  |  |  |  |  | catalytic efficiency, fold lower than that for Gly-Pro-AFC (FAP [3]; FAP): about 3 fold; Kcat (FAP [3]; [10]): <30 s⁻¹; Km (FAP [3]; [10]): > 4 µM; DPP-4 activity against substrate (in words) (DPP-4 [4]): little activity
13 | CC(=O)N[C@H](C)C(=O)N1CCCC1B(O)O (some centres unmarked) [N-Ac-(D)Ala-boroPro] |  |  |  |  |  | Ki (DPP-4 [5]): > 40 µM
